Experimental data from BindingDB's records for doi:10.1021/jm980637h (Japan Energy, 1999).

Target: T1, Dimer of Gag-Pol polyprotein [489-587] (Human immunodeficiency virus 1, UniProt P12497)
T1 construct: 489-587
Test: Protease Inhibition Assay
Conditions: pH 6; 37 °C
Experimental: Sensitivity of HIV-1 protease activity to protease inhibitors was determined by a peptide substrate cleavage assay. Substrates and cleavage fragments were separated by reverse-phase HPLC, detected by absorbance at 215 nm, and quantified by comparison with a synthetic product standard.

| SMILES | Ki |
| --- | --- |
| CSC[C@H](NC(=O)COc1cccc2cnccc12)C(=O)N[C@@H](Cc1ccccc1)[C@H](O)C(=O)N1CSC(C)(C)[C@H]1C(=O)NC(C)(C)C | 0.088 nM |
| CCc1c(O)cccc1C(=O)N[C@@H](Cc1ccccc1)[C@H](O)C(=O)N1CSC(C)(C)[C@H]1C(=O)NCc1ccccc1C [(R)-N-(2-Methylbenzyl)-3-[(2S,3S)-3-(2-ethyl-3-hydroxybenzoyl)amino-2-hydroxy-4-phenylbutanoyl]-5,5-methyl-1,3-thiazolidine-4-carboxamide] | 0.16 nM |
| CSC[C@H](NC(=O)COc1cccc2cnccc12)C(=O)N[C@@H](Cc1ccccc1)[C@H](O)C(=O)N1CSC[C@H]1C(=O)NC(C)(C)C [Kynostatin 272] | 0.74 nM |
